Experiments:
Aβ plaques = experiment: immunohistochemistry (6E10) of amyloid plaques in hippocampus of aged huAPP/PS1 mice; type: in vivo
Experimental: Brains were fixed with 4% paraformaldehyde in 100 mM sodium tetraborate, pH 9.5, for 3 h, cryoprotected with 20% sucrose-potassium-PBS (KPBS), and sectioned into coronal (30 μm) sections using a sliding microtome (Leica Microsystems Inc, Buffalo Grove, IL, USA). Sections were submerged in 0.3% H2O2 for 10 minutes to eliminate endogenous peroxidase activity and treated with 1% borate to eliminate free paraformaldehyde. Sections were incubated with primary antibody in 0.3% Triton X-100 in KPBS plus 2% filtered serum or BSA overnight at 4°C, and with […] (1:1,000) in 0.3% Triton X-100 for 1 hr at room temperature. After incubation with secondary antibody and ABC reagent (Vector Laboratories Inc, Burlingame, CA, USA), sections were developed using metal-enhanced DAB solution. Sections were mounted to slides, dried, dehydrolyzed, treated with xylene, and covered using permount (Fisher Scientific, Pittsburgh, Pennsylvania, USA). […]
Quantification of amyloid plaque burden was based on the image captured by immunohistochemical staining with antibody 6E10. Sections of each mouse cortex and hippocampus were imaged together and the areas and densities of the plaques in the hippocampus only were measured by the Image J software (NIH). The total counts of Aβ plaques in sections per six mouse brains of each group were determined in an unbiased fashion.

[1] = system: BACE, APP, NGF, BDNF, Homer-1, Egr3, phosphorylated CREB; experiment: Western blotting of hippocampal or entorhinal cortex tissue of aged huAPP/PS1 mice; type: in vivo
Experimental: (§1) The APPswe/PS1ΔE9 transgenic mice have been previously characterized. The line 85 mice carry two transgenes, the mouse/human chimeric APP/Swe, linked to Swedish FAD and human PS1ΔE9. At 20 months of age both male and female transgenic mice were fed a high fat diet (Harlan Tekland, Madison, WI, USA) with and without J147 (200 ppm, 10 mg/kg/day). Treatment continued for three months and was followed by behavior testing and sacrifice of mice for tissue harvesting. […] (Data not shown).
Hippocampal and entorhinal cortex tissue samples were homogenized in 10 volumes of RIPA lysis buffer (50 mM Tris, pH 7.5, 150 mM NaCl, 0.1% sodium dodecyl sulfate and 0.5% deoxycholate, and 1% NP40) containing a cocktail of protease and phosphatase inhibitors ([…] each of pepstatin A, aprotinin, phosphoramidon, and leupeptin; 0.5 mM 4-(2-aminoethyl) benzenesulfonyl fluoride hydrochloride; 1 mM EGTA; 5 mM fenvalerate; and 5 mM cantharidin). Samples were sonicated (2 × 10 s) and centrifuged at 100,000 × g for 60 minutes at 4°C. Protein concentrations in the cell extracts were determined using the BCA protein assay (Pierce supplied by Thermo Fisher Scientific, Rockford, IL, USA). Equal amounts of protein were solubilized in 2.5x SDS-sample buffer, separated on 12% SDS-polyacrylamide gels, transferred to Immobulin P and immunoblotted with the antibodies indicated in the Materials section. For Western blots, protein levels were normalized to actin levels. An unpaired t test was performed to compare between two groups at a single time point. When comparing multiple groups, one-way ANOVA followed by a Tukey's post hoc test was used. All statistical analysis was conducted using GraphPad Instat software.

mice = experiment: feeding throughout pregnancy to mice; type: in vivo; conditions: 10 mg/kg/day throughout pregnancy
Rats = experiment: acute toxicity in rats (Absorption Systems); type: in vivo; conditions: 2 g/kg
Experimental: The pharmacokinetics of J147 in the mouse brain and plasma were evaluated using standard procedures. Blood and brain distribution of J147 following per oral (PO) administration was plotted for mice as a function of time (Figure 5). […] Additional de-risking and target identification screens were carried out at 10 μM J147 by various CROs (Table 2). […] All original data are available upon request.

huAPP/PS1 mice = experiment: elevated plus maze in aged huAPP/PS1 mice; type: in vivo; conditions: 200 ppm in food for three months
Experimental: as §1
The elevated plus maze analyzes the anxiety response of mice. This test relies upon the tendency of mice to have a fear of heights and to navigate towards dark enclosed spaces and remain there. Our maze is made of gray plastic and consists of four arms (two open without walls and two enclosed by 15.25 cm high walls) 30 cm long and 5 cm wide in the shape of a plus sign. The elevated plus maze is placed close to the center of the room, and has similar levels of illumination on both open and closed arms. A video-tracking system (Noldus EthoVision) is used to automatically collect behavioral data. […] Mice were then tested in the maze for a five-minute period while the software tracked and recorded the behavior of the mice. The anxiety of mice was measured by comparing the time spent in the open arms to time spent in the closed arms. […]

MDRI-MDCK = conditions: MDCK-MDR1
[2] = hippocampus, vs control huAPP/PS1 mice

Structure (SMILES): COc1cccc(/C=N/N(C(=O)C(F)(F)F)c2ccc(C)cc2C)c1 [J147, (E)-N-(2,4-dimethylphenyl)-2,2,2-trifluoro-N'-(3methoxybenzyli-dene) acetohydrazide]
- plaque number and size (Aβ plaques): no difference in either plaque number or size
- protein level of β-secretase (BACE) ([1]; RIPA soluble fraction, hippocampus, vs untreated AD mice): significantly reduced
- phosphorylated CREB ([1]; entorhinal cortex): significantly increased
- mature BDNF protein level ([1]; hippocampus): increase
- proBDNF protein level ([1]; hippocampus): increase
- ratio of pro- to mature BDNF ([1]; hippocampus): decreased
- ratio of proNGF to mature NGF ([1]; hippocampus): decreased significantly
- Egr3 level ([1]; hippocampus, aged AD mice): significantly increased
- Homer-1 levels ([1]; hippocampus, aged AD mice): significantly increased
- mature NGF level [1, 2]: increases
- proNGF level [1, 2]: increases
- APP protein levels ([1]; soluble fractions of hippocampus, vs control AD mice): significantly increased
- offspring after feeding throughout pregnancy (mice): normal
- acute toxicity (Rats): negative results
- disinhibition phenotype (time in the open arm) (huAPP/PS1 mice): completely rescued
- MDRI-MDCK brain transport rates classification (BBB penetration) (MDRI-MDCK): High

Source: PMC3706879, “The neurotrophic compound J147 reverses cognitive impairment in aged Alzheimer's disease mice” (Alzheimer's Research & Therapy, 2013)
